Data from US8119647B2, “Fused pyrimidineone compounds as TRPV3 modulators” (Glenmark Pharmaceuticals S.A., priority 2008, dated 2012).
Read-outs that look alike come from different tables or passages of the source.

Target: T1, Human TRPV3 (Homo sapiens, UniProt Q8NET8)
T1 construct: expressed in transfected cells; host or cells: CHO cells (G-418 selection)
T1 sequence (Q8NET8 1-790): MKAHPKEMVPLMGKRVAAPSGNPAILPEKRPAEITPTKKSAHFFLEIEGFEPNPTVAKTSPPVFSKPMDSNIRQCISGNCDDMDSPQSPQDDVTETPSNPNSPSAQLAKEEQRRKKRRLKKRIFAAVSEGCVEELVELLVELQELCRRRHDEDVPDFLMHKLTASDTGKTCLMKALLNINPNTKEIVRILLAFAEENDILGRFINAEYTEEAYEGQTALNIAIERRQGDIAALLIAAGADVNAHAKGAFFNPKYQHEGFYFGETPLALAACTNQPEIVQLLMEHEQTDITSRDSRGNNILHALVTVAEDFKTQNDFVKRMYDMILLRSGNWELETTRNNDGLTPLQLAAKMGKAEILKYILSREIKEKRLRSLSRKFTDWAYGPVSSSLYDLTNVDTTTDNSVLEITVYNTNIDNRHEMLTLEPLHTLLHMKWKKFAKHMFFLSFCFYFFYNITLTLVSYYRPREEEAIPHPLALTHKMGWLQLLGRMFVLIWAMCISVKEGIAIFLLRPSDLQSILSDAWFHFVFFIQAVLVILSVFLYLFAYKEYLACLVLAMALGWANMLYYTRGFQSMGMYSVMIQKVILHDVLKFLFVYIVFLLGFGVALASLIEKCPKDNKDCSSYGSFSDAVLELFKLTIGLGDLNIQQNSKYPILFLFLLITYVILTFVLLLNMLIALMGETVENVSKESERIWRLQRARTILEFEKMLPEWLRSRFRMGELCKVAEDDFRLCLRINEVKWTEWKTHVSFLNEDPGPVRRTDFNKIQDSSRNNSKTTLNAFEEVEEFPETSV
Assay: Screening for TRPV3 antagonist using the 45Calcium uptake assay (inhibition of 2-APB induced cellular uptake of radioactive calcium)
Format: cell-based
Settings: for inhibition at 1 µM / Percentage inhibition at 1.0 μM: 1.0 μM test compound; for inhibition at 1 µM: read-out: Percentage inhibition at 1.0 μM; for inhibition at 10 µM: read-out: Percentage inhibition at 10.0 μM; for IC50: class symbols
Text: The illustrative examples of the present invention are screened for TRPV3 activity according to a modified procedure described in Tóth, A., Kedei, N., Wang, Y. and Blumberg, P. M. Life Sciences (2003), 73, 487-498. The screening of the compounds can be carried out by other methods and procedures known to a person skilled in the art. Such screening methods may be found in (a) Hu, H.-Z. et al. J. Biol. Chem. (2004), 279, 35741-35747; (b) Smith, G. D. et al. Nature (2002), 418, 186-190; (c) Peier, A. M. et al. Science (2002), 296, 2046-2049.
Screening for TRPV3 Antagonist Using the ^45Calcium Uptake Assay:
The inhibition of TRPV3 receptor activation was followed as inhibition of 2-aminoethoxydiphenylborate (2-APB) induced cellular uptake of radioactive calcium. Test compounds were dissolved in dimethyl sulfoxide (DMSO) to prepare 20 mM stock solution and then diluted using plain medium with DMEM/F-12 containing 1.8 mM CaCl2 to get desired concentration. Final concentration of DMSO in the reaction was 0.5% (v/v). Human TRPV3 expressing CHO cells were grown in DMEM/F-12 medium with 10% FBS, 1% penicillin-streptomycin solution, 400 μg/ml of G-418. Cells were seeded 24 h prior to the assay in 96 well plates so as to get ˜50,000 cells per well on the day of experiment. Cells were treated with test compounds for 10 minutes followed by addition of 2-APB at a final concentration of 500 μM and 5 μCi/ml ^45Ca^+2 for 4 minutes. Cells were washed and lysed using buffer containing 1% Triton X-100, 0.1% deoxycholate and 0.1% SDS. Radioactivity in the lysate was measured in Packardt Top count after addition of liquid scintillant. Concentration response curves were plotted as a % of maximal response obtained in the absence of test antagonist. IC50 value was calculated from concentration response curve by nonlinear regression analysis using GraphPad PRISM software.
Percentage inhibition at concentrations of 1.0 μM and 10.0 μM are given in the table along with IC50 (nM) values for selected examples.

[1] = human TRPV3 expressing CHO cells, 2-APB 500 μM
[2] = 10.0 μM test compound, human TRPV3 expressing CHO cells, 2-APB 500 μM

Row | Structure (SMILES) | inhibition at 1 µM [1] | inhibition at 10 µM [2] | IC50 [1] | Percentage inhibition at 10.0 μM | Percentage inhibition at 1.0 μM [1] | Percentage inhibition at 10.0 μM [2]
1 | COc1cccc(/C=C/c2nc3sccn3c(=O)c2-c2ccc(C#N)cc2)c1OCCC(C)C [Example 11, 4-{7-[(E)-2-(2-Isopentyloxy-3-methoxyphenyl)-1-ethenyl]-5-oxo-5H-[1,3]thiazolo[3,2-a]pyrimidin-6-yl}benzonitrile] | 76.2% | 90% | < 250 nM |  |  | 
2 | COc1cccc(/C=C/c2nc3sccn3c(=O)c2-c2ccc(C#N)cc2)c1OCC(C)C [Example 12, 4-{7-[(E)-2-(2-Isobutoxy-3-methoxyphenyl)-1-ethenyl]-5-oxo-5H-[1,3]thiazolo[3,2-a]-pyrimidin-6-yl}benzonitrile] | 74.7% | 94.8% | < 250 nM |  |  | 
3 | COc1cccc(/C=C/c2nc3sccn3c(=O)c2-c2ccc(C#N)cc2)c1OCC(C)(C)C [Example 13, 4-{7-[(E)-2-(3-Methoxy-2-neopentyloxyphenyl)-1-ethenyl]-5-oxo-5H-[1,3]thiazolo[3,2-a]pyrimidin-6-yl}benzonitrile] | 91.9% | 95.4% | < 250 nM |  |  | 
4 | COc1cccc(/C=C/c2nc3sccn3c(=O)c2-c2ccc(O)cc2)c1OCC1CC1 [Example 7, 7-[(E)-2-(2-Cyclopropylmethoxy-3-methoxyphenyl)-1-ethenyl]-6-(4-hydroxyphenyl)-5H-[1,3]thiazolo[3,2-a]pyrimidin-5-one] | 12% | 69.3% |  |  |  | 
5 | COc1ccc(-c2c(/C=C/c3cccc(OC)c3OCC3CC3)nc3sccn3c2=O)cc1 [Example 43, 7-[(E)-2-(2-Cyclopropylmethoxy-3-methoxyphenyl)-1-ethenyl]-6-(4-methoxy-phenyl)-5H-[1,3]thiazolo[3,2-a]pyrimidin-5-one] | 63.4% | 94% | 500 to 1000 nM |  |  | 
6 | COc1cccc(/C=C/c2nc3sccn3c(=O)c2-c2ccc(C#N)cc2)c1OCc1ccccn1 [Example 21] |  |  |  | 11.60% | 14.88% | 
7 | COc1cccc(/C=C/c2nc3sccn3c(=O)c2-c2ccc(C(F)(F)F)cc2)c1OCc1ccccn1 [Example 36] |  |  |  |  | 11.2% | 0.0%
8 | COc1cccc(/C=C/c2nc3sccn3c(=O)c2-c2ccc(N(C)C)cc2)c1OCC(C)(C)C [Example 42, 6-(4-Dimethylaminophenyl)-7-[(E)-2-(3-methoxy-2-neopentyloxy)phenyl-1-ethenyl]-5H-[1,3]thiazolo[3,2-a]pyrimidin-5-one] | 62.7% | 78.5% |  |  |  | 
9 | CCCCOc1c(/C=C/c2nc3sccn3c(=O)c2-c2ccc(OC(F)(F)F)cc2)cccc1OC [Example 57, 7-[(E)-2-(2-Butoxy-3-methoxyphenyl)-1-ethenyl]-6-[4-(trifluoromethoxy)phenyl]-5H-[1,3]thiazolo[3,2-a]pyrimidin-5-one] | 79.4% | 91.9% | < 250 nM |  |  | 
10 | COc1cc(/C=C/c2nc3sccn3c(=O)c2-c2ccc(C(F)(F)F)cc2)ccc1OCC1CC1 [Example 38, 7-[(E)-2-(4-Cyclopropylmethoxy-3-methoxyphenyl)-1-ethenyl]-6-[4-(trifluoromethyl)-phenyl]-5H-[1,3]thiazolo[3,2-a]pyrimidin-5-one] | 28.6% | 50.2% |  |  |  | 
11 | COc1cc(/C=C/c2nc3sc4ccccc4n3c(=O)c2-c2ccc(C(F)(F)F)cc2)ccc1OCCCC#N [Example 94, 2-{(E)-2-[(3-Cyanopropoxy-3-methoxy)phenyl]-1-ethenyl}-3-(4-trifluoromethyl-phenyl)-4H-benzo[4,5][1,3]thiazolo-[3,2-a]pyrimidin-4-one] |  |  |  |  | 5.84% | 10.03%
12 | CCCCCOc1c(/C=C/c2nc3sccn3c(=O)c2-c2ccc(C#N)cc2)cccc1OC [Example 10, 4-{7-[(E)-2-(3-Methoxy-2-pentyloxyphenyl)-1-ethenyl]-5-oxo-5H-[1,3]-thiazolo[3,2-a]pyrimidin-6-yl}benzonitrile] | 74.8% | 92.9% | 250 to 500 nM |  |  | 
13 | COc1cccc(/C=C/c2nc3sccn3c(=O)c2-c2ccc(C(C)=O)cc2)c1OCC1CC1 [Example 5] |  |  |  |  | 60.3% | 95.1%
14 | COc1cccc(/C=C/c2nc3sccn3c(=O)c2-c2ccc(OC(F)(F)F)cc2)c1OCCCCF [Example 56, 4-7-[(E)-2-{2-(4-Fluorobutoxy)-3-methoxyphenyl}-1-ethenyl]-6-[4-(trifluoromethoxy)phenyl]-5H-[1,3]thiazolo[3,2-a]pyrimidin-5-one] |  |  | 250 to 500 nM |  | 80.9% | 93.5%
15 | COc1cccc(/C=C/c2nc3sccn3c(=O)c2-c2ccc(C(C)(C)C)cc2)c1OCC1CC1 [Example 4] | 66.5% | 84.7% | 250 to 500 nM |  |  | 
16 | COc1cccc(/C=C/c2nc3sccn3c(=O)c2-c2cc(F)cc(F)c2)c1OCC1CC1 [Example 8] |  |  |  |  | 2.0% | 20.5%
17 | COc1cccc(/C=C/c2nc3sccn3c(=O)c2-c2ccc(C(F)(F)F)cc2)c1OC1CCCC1 [Example 35, 7-[(E)-2-(2-Cyclopentyloxy-3-methoxyphenyl)-1-ethenyl]-6-[4-(trifluoromethyl)phenyl]-5H-[1,3]thiazolo[3,2-a]pyrimidin-5-one] | 29.4% | 68.5% |  |  |  | 

Continued, in another order:

Row | inhibition at 1 µM [1] | inhibition at 10 µM [2] | IC50 [1] | Percentage inhibition at 10.0 μM | Structure (SMILES) | Percentage inhibition at 1.0 μM [1] | Percentage inhibition at 10.0 μM [2]
18 | 81.8% | 91.9% | < 250 nM |  | CCOCCOc1c(/C=C/c2nc3sc4ccccc4n3c(=O)c2-c2ccc(C#N)cc2)cccc1OC [Example 85] |  | 
19 | 89.9% | 95.9% | < 250 nM |  | CCOCCOc1c(/C=C/c2nc3sccn3c(=O)c2-c2ccc(OC(F)(F)F)cc2)cccc1OC [Example 53, 7-[(E)-2-{2-(2-Ethoxyethoxy)-3-methoxyphenyl}-1-ethenyl]-6-[4-(trifluoromethoxy)phenyl]-5H-[1,3]thiazolo[3,2-a]pyrimidin-5-one] |  | 
20 | 44% | 88.6% |  |  | CCOc1ccc(-c2c(/C=C/c3cccc(OC)c3OCC3CC3)nc3sccn3c2=O)cc1 [Example 44, 7-[(E)-2-(2-Cyclopropylmethoxy-3-methoxyphenyl)-1-ethenyl]-6-(4-ethoxyphenyl)-5H-[1,3]thiazolo[3,2-a]pyrimidin-5-one] |  | 
21 | 78.4% | 90.3% | < 250 nM |  | COc1cccc(/C=C/c2nc3sccn3c(=O)c2-c2ccc(OC(F)(F)F)cc2)c1OCC(C)(C)C [Example 52, 7-[(E)-2-{3-Methoxy-2-neopentyloxyphenyl}-1-ethenyl]-6-[4-(trifluoromethoxy)phenyl]-5H-[1,3]thiazolo[3,2-a]pyrimidin-5-one] |  | 
22 | 23% | 30% |  |  | COc1cccc(/C=C/c2nc3n(C)c4ccccc4n3c(=O)c2-c2ccc(OC(F)(F)F)cc2)c1OCC1CC1 [Example 98, 2-[(E)-2-(2-Cyclopropylmethoxy-3-methoxyphenyl)vinyl]-3-(4-trifluoromethoxyphenyl)-10-methylpyrimido[1,2-a]benzimidazol-4(10H)-one] |  | 
23 | 75.8% | 83.6% | < 250 nM |  | COc1cccc(/C=C/c2nc3sccn3c(=O)c2-c2ccc(OC(F)(F)F)cc2)c1OC1CCCC1 [Example 68] |  | 
